This note sets out measurements from patent US20220235051A1, “DI-FLUORO AZEPANES AS HBV CAPSID ASSEMBLY MODULATORS” (priority 2019, published 2022).

For the experiment, the system named is HBV. In words: HBV replication inhibition assay (BDNA assay) in HepG2.2.15 cells. In kind it is cell-based. To be noted: Hepatitis B virus, HepG2.2.15, 144 h, HepG2.2.15 cells, BDNA assay, encapsidated HBV DNA in supernatant at day 6; read-out: HepG2.2.15 EC50 HBV DNA. The method, then: HBV replication inhibition by the disclosed compounds were determined in cells infected or transfected with HBV or cells with stably integrated HBV, such as HepG2.2.15 cells (Sells et al. 1987). In this example, HepG2.2.15 cells were maintained in cell culture medium containing 10% fetal bovine serum (FBS), Geneticin, L-glutamine, penicillin and streptomycin. HepG2.2.15 cells were seeded in 96-well plates at a density of 40,000 cells/well and were treated with serially diluted compounds at a final DMSO concentration of 0.5% either alone or in combination by adding drugs in a checker box format. Cells were incubated with compounds for three days, after which medium was removed and fresh medium containing compounds was added to cells and incubated for another three days. At day 6, supernatant was removed and treated with DNase at 37° C. for 60 minutes, followed by enzyme inactivation at 75° C. for 15 minutes. Encapsidated HBV DNA was released from the virions and covalently linked HBV polymerase by incubating in lysis buffer (Affymetrix QS0010) containing 2.5 μg proteinase K at 50° C. for 40 minutes. HBV DNA was denatured by addition of 0.2 M NaOH and detected using a branched DNA (BDNA) QuantiGene assay kit according to manufacturer recommendation (Affymetrix). HBV DNA levels were also quantified using qPCR, based on amplification of encapsidated HBV DNA extraction with QuickExtraction Solution (Epicentre Biotechnologies) and amplification of HBV DNA using HBV specific PCR probes that can hybridize to HBV DNA and a fluorescently labeled probe for quantitation. In addition, cell viability of HepG2.2.15 cells incubated with test compounds alone or in combination was determined by using CellTitre-Glo reagent according to the manufacturer protocol (Promega). The mean background signal from wells containing only culture medium was subtracted from all other samples, and percent inhibition at each compound concentration was calculated by normalizing to signals from HepG2.2.15 cells treated with 0.5% DMSO using equation E1.
% inhibition=(DMSOave−Xi)/DMSOave×100% E1
where DMSOave is the mean signal calculated from the wells that were treated with DMSO control (0% inhibition control) and Xi is the signal measured from the individual wells. EC50 values, effective concentrations that achieved 50% inhibitory effect, were determined by non-linear fitting using Graphpad Prism software (San Diego, Calif.) and equation E2.
Y=Ymin+(Ymax−Ymin)/(1+10(Log EC50−X)×HillSlope) E2
where Y represents percent inhibition values and X represents the logarithm of compound concentrations.
Selected disclosed compounds were assayed in the HBV replication assay (BDNA assay), as described above, and a representative group of these active compounds is shown in Table 3.

As usually defined, the EC50 is the concentration that produces a half-maximal response.

As to `COC(=O)NCC1CCC(F)(F)c2c3c(nn2C1)CCN(C(=O)Nc1ccc(F)c(C#N)c1)C3` (stereo not shown) [Example 53, Methyl ((2-((3-cyano-4-fluorophenyl)carbamoyl)-11,11-difluoro-2,3,4,7,8,9,10,11-octahydro-1H-pyrido[4′,3′:3,4]pyrazolo[1,5-a]azepin-8-yl)methyl)-carbamate], the EC50 was 10 nM.

Take `COC(=O)NCC1CCC(F)(F)c2c3c(nn2C1)CCN(C(=O)Nc1ccnc(Br)c1F)C3` (stereo not shown) [Example 54, Methyl ((2-((2-bromo-3-fluoropyridin-4-yl)carbamoyl)-11,11-difluoro-2,3,4,7,8,9,10,11-octahydro-1H-pyrido[4′,3′:3,4]pyrazolo[1,5-a]azepin-8-yl)methyl)-carbamate]: the EC50 was found to be 8 nM.

As for `C#CC1(O)CCC(F)(F)c2c3c(nn2C1)CCN(C(=O)Nc1ccc(F)c(C#N)c1)C3` (stereo not shown) [Example 58, N-(3-Cyano-4-fluorophenyl)-8-ethynyl-11,11-di fluoro-8-hydroxy-3,4,8,9,10,11-hexahydro-1H-pyrido[4′,3′:3,4]pyrazolo[1,5-a]azepine-2(7H)-carboxamide], the half-maximal effective concentration (EC50) came to 37 nM.

For `C[C@@H]1Cc2nn3c(c2CN1C(=O)Nc1ccc(F)c(C#N)c1)C(F)(F)CC[C@@H](O)C3` [Example 67, (3R,8R)-N-(3-cyano-4-fluorophenyl)-11,11-difluoro-8-hydroxy-3-methyl-3,4,8,9,10,11-hexahydro-1H-pyrido[4′,3′:3,4]pyrazolo[1,5-a]azepine-2(7H)-carboxamide], the EC50 was 4 nM.

Take `C[C@@H]1Cc2nn3c(c2CN1C(=O)Nc1ccnc(Br)c1F)C(F)(F)CC[C@@H](O)C3` [Example 68, (3R,8R)-N-(2-Bromo-3-fluoropyridin-4-yl)-11,11-di fluoro-8-hydroxy-3-methyl-3,4,8,9,10,11-hexahydro-1H-pyrido[4′,3′:3,4]pyrazolo[1,5-a]azepine-2(7H)-carboxamide]: the EC50 came to 21 nM.

As to `C[C@@H]1Cc2nn3c(c2CN1C(=O)Nc1ccc(F)c(C(F)(F)F)c1)C(F)(F)CC[C@@H](O)C3` [Example 69, (3R,8R)-11,11-Difluoro-N-(4-fluoro-3-(trifluoromethyl)phenyl)-8-hydroxy-3-methyl-3,4,8,9,10,11-hexahydro-1H-pyrido[4′,3′:3,4]pyrazolo[1,5-a]azepine-2(7H)-carboxamide], the EC50 is 7 nM.

Consider `C[C@@H]1Cc2nn3c(c2CN1C(=O)Nc1ccnc(C(F)F)c1F)C(F)(F)CC[C@@H](O)C3` [Example 70, (3R,8R)-N-(2-(Difluoromethyl)-3-fluoropyridin-4-yl)-11,11-difluoro-8-hydroxy-3-methyl-3,4,8,9,10,11-hexahydro-1H-pyrido[4′,3′:3,4]pyrazolo[1,5-a]azepine-2(7H)-carboxamide], for which the concentration for a half-maximal effect (EC50) is 31 nM.

For the compound `C[C@@H]1Cc2nn3c(c2CN1C(=O)Nc1ccc(F)c(C#N)c1)C(F)(F)CC[C@H](O)C3` [Example 71, (3R,8 S)-N-(3-Cyano-4-fluorophenyl)-11,11-difluoro-8-hydroxy-3-methyl-3,4,8,9,10,11-hexahydro-1H-pyrido[4′,3′:3,4]pyrazolo[1,5-a]azepine-2(7H)-carboxamide], the EC50 worked out at 2 nM.

Take `C[C@@H]1Cc2nn3c(c2CN1C(=O)Nc1ccnc(Br)c1F)C(F)(F)CC[C@H](O)C3` [Example 72, (3R,8S)-N-(2-Bromo-3-fluoropyridin-4-yl)-11,11-difluoro-8-hydroxy-3-methyl-3,4,8,9,10,11-hexahydro-1H-pyrido[4′,3′:3,4]pyrazolo[1,5-a]azepine-2(7H)-carboxamide]: the EC50 was 9 nM.

In the case of `C[C@@H]1Cc2nn3c(c2CN1C(=O)Nc1ccc(F)c(C(F)(F)F)c1)C(F)(F)CC[C@H](O)C3` [Example 73, (3R,8S)-11,11-Difluoro-N-(4-fluoro-3-(trifluoromethyl)phenyl)-8-hydroxy-3-methyl-3,4,8,9,10,11-hexahydro-1H-pyrido[4′,3′:3,4]pyrazolo[1,5-a]azepine-2(7H)-carboxamide], the EC50 was determined as 2 nM.

For `C[C@@H]1Cc2nn3c(c2CN1C(=O)Nc1ccnc(C(F)F)c1F)C(F)(F)CC[C@H](O)C3` [Example 74, (3R,8S)-N-(2-(Difluoromethyl)-3-fluoropyridin-4-yl)-11,11-difluoro-8-hydroxy-3-methyl-3,4,8,9,10,11-hexahydro-1H-pyrido[4′,3′:3,4]pyrazolo[1,5-a]azepine-2(7H)-carboxamide], the EC50 came to 11 nM.

Consider `C[C@@H]1Cc2nn3c(c2CN1C(=O)Nc1ccc(F)c(C#N)c1)C(F)(F)C[C@H](CO)CC3` [Example 131], for which the EC50 is 3 nM.

As to `C[C@@H]1Cc2nn3c(c2CN1C(=O)Nc1ccc(F)c(C#N)c1)C(F)(F)C(O)CCC3` (stereo partly drawn) [Example 143, (3R)-N-(3-Cyano-4-fluorophenyl)-11,11-difluoro-10-hydroxy-3-methyl-1,3,4,7,8,9,10,11-octahydro-2H-pyrido[4′,3′:3,4]pyrazolo[1,5-a]azepine-2-carboxamide], the EC50 is 154 nM.
